Each block holds one compound with its values, some of them ahead of it.
System: 521955-158-R2-J5-PDC complex spheroid viability
Assay: Anticancer human tumor 521955-158-R2-J5-PDC patient-derived pancreatic carcinoma cell line growth inhibition [GQUAD]
Settings: for IC50: curve of first compound; for viability, T/C: stronger effect = lower value
Source text: DNA G-quadruplex Stabilizer Agents in Combinations in Complex Spheroids
A high-throughput screen of multi-cell type tumor spheroids was designed to identify active combinations of DNA G-quadruplex stabilizer agents and targeted small molecules. Complex spheroids include a stromal component modeled by human endothelial cells (HUVEC) and fibroblasts modeled by human mesenchymal stem cells (MSCs). The concentration ranges selected for each drug and investigational agent were based upon clinically achievable concentrations if the clinical Cmax of the agent was known.
Compounds. The drugs and investigational agents: pidnarulex (CX-5461; NSC782164), APTO-253 (NSC789042), BRACO-19 (NSC847499), peposertib (NSC802822), ceralasertib (NSC780249), elimusertib (NSC800525), camonsertib (NSC841442), AZD-1390 (NSC803789), olaparib (NSC753686), talazoparib (NSC767125), ART-558 (NSC835418), sotorasib (NSC818433), MRTX-1133 (NSC836407), SN-38 (NSC673596), topotecan (NSC609699), etoposide (NSC141540), doxorubicin (NSC123127), gemcitabine (NSC613327), 5-fluorouracil (NSC19893), paclitaxel (NSC125973), vemurafenib (NSC761431), panobinostat (NSC761190), R-306465 (JNJ-16241199; NSC773264), adavosertib (NSC754352), TP-3654 (NSC805149), carboplatin (NSC241240), KSQ-4279 (NSC840948), and staurosporine (NSC755774) were obtained from the National Cancer Institute (NCI) Developmental Therapeutics Program Chemical Repository (34). The FDA-approved anticancer drug set is available from the NCI Developmental Therapeutics Program. […] The stock solutions were prepared in dimethyl sulfoxide (DMSO, Sigma-Aldrich, St. Louis, MO, cat. D2650) at 800-fold the tested concentration and stored at -70 degrees C prior to their use. All drugs and investigational agents were tested over a range starting from a high concentration at or near the clinical Cmax and decreasing in half-log increments. If the clinical Cmax for an agent had not been determined, the highest concentration tested was 10 microM.
2.3 Cell Culture. All cells were maintained in an incubator at 37 degrees C and 5% CO2 with 95% humidity. The PDC lines were cultured according to standard operating procedures established by the NCI PDMR. All PDCs were thawed and cultured in Matrigel-coated flasks prepared with a working solution of 1X Ham's F-12 nutrient mix, without supplementation (Invitrogen, cat. 11765054), 100 U/mL penicillin-streptomycin (Invitrogen, cat. 15140122), and 2.5% Matrigel (Corning Inc., cat. 354248) for the first three passages. The 857933-349-R-J2-PDC line was cultured in 6C/Colon 1B media, which includes advanced DMEM/F-12 (Thermo Fisher Scientific, cat. 12634028), 10 mM HEPES (Thermo Fisher Scientific, cat. 15630080), 1X GlutaMAX supplement (Thermo Fisher Scientific, cat. 35050061), 0.1 mg/mL primocin (InvivoGen, cat. ant-pm-2), 10% defined fetal bovine serum, heat inactivated (HyClone Laboratories Inc., cat. SH30070.03HI), 50% L-WRN conditioned media (ATCC, cat. CRL-3276), 1.25 mM N-Acetyl-L-cysteine (Sigma-Aldrich, cat. A9165), 10 mM nicotinamide (Sigma-Aldrich, cat. N0636), 1X B-27 supplement (Thermo Fisher Scientific, cat. 17504044), 1X N-2 supplement (Thermo Fisher Scientific, cat. 17502048), 10 microM Y-27632 dihydrochloride (Tocris Bioscience, cat. 1254), and 50 ng/mL human EGF recombinant protein (Thermo Fisher Scientific, cat. PHG0311). The 485176-168-R4-J1-PDC line was cultured in Panc media, which includes all 6C/Colon 1B media components plus 100 ng/mL human FGF-10 (Thermo Fisher Scientific, cat. 100-26), 500 nM SB-431542 (Selleckchem, cat. S1067), and gastrin (Tocris, cat. 3006).
[…]

[1] = second compound 0.0316 µM, first compound 0.0316 µM
[2] = second compound 0.0316 µM, first compound 0.316 µM
[3] = second compound 0.1 µM, first compound 0.0316 µM
[4] = second compound 0.1 µM, first compound 0.316 µM
[5] = second compound 0.316 µM, first compound 0.0316 µM
[6] = second compound 0.316 µM, first compound 0.316 µM
[7] = second compound 1 µM, first compound 0.0316 µM
[8] = second compound 1 µM, first compound 0.316 µM
[9] = second compound 3.16 µM, first compound 0.0316 µM
[10] = second compound 3.16 µM, first compound 0.316 µM
[11] = second compound 10 µM, first compound 0.0316 µM
[12] = second compound 10 µM, first compound 0.316 µM
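Note: spheroids exposed to agents for one week before reading.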
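Throughout, for viability, T/C: 100% = DMSO vehicle control viability.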

Compound: O=C(NO)c1cnc(N2CCN(S(=O)(=O)c3ccc4ccccc4c3)CC2)nc1 + CN(C)c1ccc(Nc2c3ccc(NC(=O)CCN4CCCC4)cc3nc3cc(NC(=O)CCN4CCCC4)ccc23)cc1
- IC50 (second compound 0.0316 µM): 703 nM
- IC50 (second compound 0.1 µM): 668 nM
- IC50 (second compound 0.316 µM): 491 nM
- IC50 (second compound 1 µM): 550 nM
- IC50 (second compound 3.16 µM): 734 nM
- IC50 (second compound 10 µM): 376 nM
- viability, T/C [1]: 127%
- viability, T/C (second compound 0.0316 µM, first compound 0.1 µM): 105%
- viability, T/C [2]: 95.3%
- viability, T/C (second compound 0.0316 µM, first compound 1 µM): 30.6%
- viability, T/C (second compound 0.0316 µM, first compound 3.16 µM): 0.19%
- viability, T/C (second compound 0.0316 µM, first compound 10 µM): 0.15%
- viability, T/C [3]: 120%
- viability, T/C (second compound 0.1 µM, first compound 0.1 µM): 124%
- viability, T/C [4]: 94.7%
- viability, T/C (second compound 0.1 µM, first compound 1 µM): 26%
- viability, T/C (second compound 0.1 µM, first compound 3.16 µM): 0.16%
- viability, T/C (second compound 0.1 µM, first compound 10 µM): 0.1%
- viability, T/C [5]: 118%
- viability, T/C (second compound 0.316 µM, first compound 0.1 µM): 115%
- viability, T/C [6]: 58%
- viability, T/C (second compound 0.316 µM, first compound 1 µM): 31.6%
- viability, T/C (second compound 0.316 µM, first compound 3.16 µM): 0.13%
- viability, T/C (second compound 0.316 µM, first compound 10 µM): 0.12%
- viability, T/C [7]: 121%
- viability, T/C (second compound 1 µM, first compound 0.1 µM): 116%
- viability, T/C [8]: 60.9%
- viability, T/C (second compound 1 µM, first compound 1 µM): 37%
- viability, T/C (second compound 1 µM, first compound 3.16 µM): 0.15%
- viability, T/C (second compound 1 µM, first compound 10 µM): 0.12%
- viability, T/C [9]: 109%
- viability, T/C (second compound 3.16 µM, first compound 0.1 µM): 142%
- viability, T/C [10]: 87.5%
- viability, T/C (second compound 3.16 µM, first compound 1 µM): 37.7%
- viability, T/C (second compound 3.16 µM, first compound 3.16 µM): 0.28%
- viability, T/C (second compound 3.16 µM, first compound 10 µM): 0.13%
- viability, T/C [11]: 94%
- viability, T/C (second compound 10 µM, first compound 0.1 µM): 94.1%
- viability, T/C [12]: 53.7%
- viability, T/C (second compound 10 µM, first compound 1 µM): 17.1%
- viability, T/C (second compound 10 µM, first compound 3.16 µM): 0.27%
- viability, T/C (second compound 10 µM, first compound 10 µM): 0.21%

- IC50 (second compound 0.0316 µM): 71.3 nM
- IC50 (second compound 0.1 µM): 35.1 nM
- IC50 (second compound 0.316 µM): < 0.999 nM
- IC50 (second compound 1 µM): < 0.999 nM
- IC50 (second compound 3.16 µM): < 0.999 nM
- IC50 (second compound 10 µM): < 0.999 nM
Compound: Cc1[nH]c2ccccc2c1CCNCc1ccc(/C=C/C(=O)NO)cc1 + Cc1cnc(CNC(=O)c2c(=O)c3ccc(N4CCCN(C)CC4)nc3n3c2sc2ccccc23)cn1
- viability, T/C (second compound 0.0316 µM, first compound 0.000999 µM): 76.2%
- viability, T/C (second compound 0.0316 µM, first compound 0.00316 µM): 66.1%
- viability, T/C (second compound 0.0316 µM, first compound 0.00999 µM): 92.3%
- viability, T/C [1]: 75.6%
- viability, T/C (second compound 0.0316 µM, first compound 0.0999 µM): 39.2%
- viability, T/C [2]: 5.94%
- viability, T/C (second compound 0.1 µM, first compound 0.000999 µM): 64.7%
- viability, T/C (second compound 0.1 µM, first compound 0.00316 µM): 57.7%
- viability, T/C (second compound 0.1 µM, first compound 0.00999 µM): 57.1%
- viability, T/C [3]: 54%
- viability, T/C (second compound 0.1 µM, first compound 0.0999 µM): 33.2%
- viability, T/C [4]: 2.12%
- viability, T/C (second compound 0.316 µM, first compound 0.000999 µM): 26.8%
- viability, T/C (second compound 0.316 µM, first compound 0.00316 µM): 31.2%
- viability, T/C (second compound 0.316 µM, first compound 0.00999 µM): 34%
- viability, T/C [5]: 37.1%
- viability, T/C (second compound 0.316 µM, first compound 0.0999 µM): 26.6%
- viability, T/C [6]: 1.88%
- viability, T/C (second compound 1 µM, first compound 0.000999 µM): 16.8%
- viability, T/C (second compound 1 µM, first compound 0.00316 µM): 21.2%
- viability, T/C (second compound 1 µM, first compound 0.00999 µM): 18.5%
- viability, T/C [7]: 20.1%
- viability, T/C (second compound 1 µM, first compound 0.0999 µM): 18.6%
- viability, T/C [8]: 0.1%
- viability, T/C (second compound 3.16 µM, first compound 0.000999 µM): 12.1%
- viability, T/C (second compound 3.16 µM, first compound 0.00316 µM): 14.4%
- viability, T/C (second compound 3.16 µM, first compound 0.00999 µM): 14.7%
- viability, T/C [9]: 13.9%
- viability, T/C (second compound 3.16 µM, first compound 0.0999 µM): 6.38%
- viability, T/C [10]: 0.11%
- viability, T/C (second compound 10 µM, first compound 0.000999 µM): 9.65%
- viability, T/C (second compound 10 µM, first compound 0.00316 µM): 11.8%
- viability, T/C (second compound 10 µM, first compound 0.00999 µM): 14.8%
- viability, T/C [11]: 13.8%
- viability, T/C (second compound 10 µM, first compound 0.0999 µM): 5.03%
- viability, T/C [12]: 0.18%
